Measurements from US7737175B2, “Methods and compositions for regulating HDAC4 activity” (Duke University, priority 2007, dated 2010).

Legend:
[1] = molecular target: T1, HDAC4 (Mus musculus, UniProt Q6NZM9); assay: PGC-1α and myoglobin expression in tibialis anterior electroporated with HDAC4-siRNA; type: in vivo; parameters: HDAC4 siRNA results in more than 80% reduction in HDAC4; from tissue; host or cells: mouse tibialis anterior muscle, in vivo; conditions: fast/glycolytic tibialis anterior muscle
T1 sequence (Q6NZM9 whole entry): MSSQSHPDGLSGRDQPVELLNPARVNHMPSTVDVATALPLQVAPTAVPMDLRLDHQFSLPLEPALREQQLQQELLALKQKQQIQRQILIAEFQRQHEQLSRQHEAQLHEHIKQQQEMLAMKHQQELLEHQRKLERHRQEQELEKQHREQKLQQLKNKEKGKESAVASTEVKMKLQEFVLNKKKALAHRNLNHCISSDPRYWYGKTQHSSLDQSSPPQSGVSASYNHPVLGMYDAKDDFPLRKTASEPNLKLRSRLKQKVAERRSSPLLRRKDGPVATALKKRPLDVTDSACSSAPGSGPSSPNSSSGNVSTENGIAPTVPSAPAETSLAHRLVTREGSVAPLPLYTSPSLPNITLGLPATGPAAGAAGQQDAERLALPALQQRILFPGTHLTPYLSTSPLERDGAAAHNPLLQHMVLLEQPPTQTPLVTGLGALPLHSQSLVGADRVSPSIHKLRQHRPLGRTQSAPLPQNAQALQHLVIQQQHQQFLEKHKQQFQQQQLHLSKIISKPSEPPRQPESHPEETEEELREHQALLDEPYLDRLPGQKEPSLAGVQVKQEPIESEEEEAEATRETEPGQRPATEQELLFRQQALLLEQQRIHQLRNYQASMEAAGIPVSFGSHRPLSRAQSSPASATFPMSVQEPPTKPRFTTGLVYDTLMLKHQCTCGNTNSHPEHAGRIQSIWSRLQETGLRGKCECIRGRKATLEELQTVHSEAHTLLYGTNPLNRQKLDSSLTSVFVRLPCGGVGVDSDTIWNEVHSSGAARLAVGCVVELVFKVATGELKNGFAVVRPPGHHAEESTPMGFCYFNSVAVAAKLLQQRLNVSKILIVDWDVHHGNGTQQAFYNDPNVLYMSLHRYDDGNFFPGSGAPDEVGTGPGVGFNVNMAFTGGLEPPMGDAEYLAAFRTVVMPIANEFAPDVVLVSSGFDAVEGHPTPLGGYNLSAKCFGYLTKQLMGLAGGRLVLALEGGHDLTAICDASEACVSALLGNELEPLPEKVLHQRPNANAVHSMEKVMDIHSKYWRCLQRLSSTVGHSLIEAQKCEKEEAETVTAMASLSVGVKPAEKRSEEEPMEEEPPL
Procedure: (§1) Mouse Procedures. Mice were anaesthetized with a Ketamine/Xylazine mixture (25 mg/ml Ketamine, 1 mg/ml Xylazine in 0.9% NaCl; 100 ul used per mouse. Hair was removed from area surrounding muscle. For denervation, sciatic nerve was exposed and ˜[…] piece of nerve was cut and removed. Incision was sutured and mice were allowed to recover. For overexpression electroporation analysis, 25 ug GFP, HDAC4-GFP, or HDAC4-3SA-GFP was used for injection. For siRNA experiments, 500 pmol siRNA oligo was used for injection. DNA or siRNA were directly injected into TA muscles using cemented MicroSyringe (VWR). ECM 830 electroporator (BTX) was used for all electroporations. Tweezertrodes (Model 520) were coated with transmission gel and were placed outside the skin around the muscle belly and pulsed 5 times at 50V, 60 ms duration, with 200 ms interval time. Mice were allowed to recover in their cages. Stealth siRNA duplexed oligos are from Invitrogen. Sequences are; mouse HDAC4: 5′ […] 3′ (SEQ ID NO:3), mouse HDAC5: 5′ […] 3′ (SEQ ID NO:4).
RNA analysis. For RNA analysis, TA muscles were dounce homogenized in 1 ml Tri reagent (MRC) and incubated at 4° C. overnight. 200 ul chloroform was added, and after vigorous shaking, samples were centrifuged at 12000 rpm for 10 min. […] Real-time quantitative PCR was performed using iQ SYBER Green Supermix on the iCycler™ iQ Detection System (Biorad). […]

[2] = molecular target: T1, HDAC4; assay: in vivo siRNA knockdown in mouse tibialis muscle, denervation, RT-PCR of Dach2/MGN/nAChR; parameters: HDAC4 siRNA results in more than 80% reduction in HDAC4; from tissue; host or cells: mouse tibialis anterior muscle, in vivo; conditions: siRNA electroporated into tibialis, denervated 3 days
Procedure: as §1
RNA analysis. For RNA analysis, TA muscles were dounce homogenized in 1 ml Tri reagent (MRC) and incubated at 4° C. overnight. 200 ul chloroform was added, and after vigorous shaking, samples were centrifuged at 12000 rpm for 10 min. Top aqueous layer was added to 500 ul isopropanol, mixed well, and centrifuged at 12000 rpm for 10 min. RNA pellet was washed with 70% ethanol, air-dried, and resuspended in DEPC water for RT-PCR analysis. For northern blotting, 10 ug total RNA was run on a 1% formaldehyde RNA gel. Gel was transferred onto Hybond N+ membrane and probed using radiolabeled fragments of HDAC4 or Atrogin-1 cDNA generated from Prime-it kit II (Stratagene). Blots were exposed for 2 hr at −80° C. For RT-PCR analysis, total RNA was DNase treated using DNA-free kit (Ambion), and 1 ug RNA was used for cDNA synthesis reaction using iScript cDNA Synthesis Kit (Biorad). Samples were diluted 1:50 and 5 ul cDNA was used per RT-PCR reaction. Real-time quantitative PCR was performed using iQ SYBER Green Supermix on the iCycler™ iQ Detection System (Biorad). […]

[3] = molecular target: T1, HDAC4; assay: muscle atrophy after surgical denervation of siRNA-electroporated tibialis anterior (fiber size, atrophy genes by RT-PCR); type: in vivo; parameters: HDAC4 siRNA results in more than 80% reduction in HDAC4; from tissue; host or cells: mouse tibialis anterior muscle, in vivo
Procedure: as §1
RNA analysis. For RNA analysis, TA muscles were dounce homogenized in 1 ml Tri reagent (MRC) and incubated at 4° C. overnight. 200 ul chloroform was added, and after vigorous shaking, samples were centrifuged at 12000 rpm for 10 min. Top aqueous layer was added to 500 ul isopropanol, mixed well, and centrifuged at 12000 rpm for 10 min. RNA pellet was washed with 70% ethanol, air-dried, and resuspended in DEPC water for RT-PCR analysis. For northern blotting, 10 ug total RNA was run on a 1% formaldehyde RNA gel. Gel was transferred onto Hybond N+ membrane and probed using radiolabeled fragments of HDAC4 or Atrogin-1 cDNA generated from Prime-it kit II (Stratagene). Blots were exposed for 2 hr at −80° C. For RT-PCR analysis, total RNA was DNase treated using DNA-free kit (Ambion), and 1 ug RNA was used for cDNA synthesis reaction using iScript cDNA Synthesis Kit (Biorad). Samples were diluted 1:50 and 5 ul cDNA was used per RT-PCR reaction. Real-time quantitative PCR was performed using iQ SYBER Green Supermix on the iCycler™ iQ Detection System (Biorad). Sample volume was 20 ul per reaction. Efficiency and specificity of primers were confirmed by standard PCR and DNA electrophoresis. RT-PCR Program on iCycler™ was 95° C. 15 sec, 60° C. 30 sec, 72° C. 30 sec. All real-time PCR values were normalized to either actin or 18S rRNA. RT-PCR primer sequences are as follows: G-actin: forward 5′-[…] 3′ (SEQ ID NO:5), reverse 5′ […] 3′ (SEQ ID NO:6); 18S: forward 5′ […] 3′ (SEQ ID NO:7), reverse 5′ […] 3′ (SEQ ID NO:8); Dach2: forward 5′-[…] 3′ (SEQ ID NO:9), reverse 5′ […] 3′ (SEQ ID NO:10); nAChRα: forward 5′ CGTCTGGTGGCAAAGCT 3′ (SEQ ID NO:11), reverse 5′-CCGCTCTCCATGAAGTT 3′ (SEQ ID NO:12); MGN: forward 5′-[…] […]
To establish a role for HDAC4 in muscle atrophy, scrambled control siRNA or HDAC4-specific siRNA were electroporated into tibialis anterior (TA) followed by denervation. […] The extent of muscle atrophy was then analyzed by measuring muscle fiber size and the induction of atrophy-specific genes, MuRF1 and atrogin 1, two E3 ligases essential for muscle atrophy. […]

[4] = molecular target: T1, HDAC4; conditions: daily injection

Substance	PGC-1α expression [1]	myoglobin expression [1]	induction of MGN after denervation [2]	induction of nAChR after denervation [2]	repression of Dach2 that occurs during denervation ([2]; 7 days after electroporation)	atrogin 1 expression after denervation ([3]; RT-PCR)	induction of MuRF1 by denervation ([3]; RT-PCR)	atrophy (reduction in TA muscle size) after denervation ([3]; denervation for 12 days, versus control siRNA)	reduction in HDAC4 ([3]; siRNA electroporated into tibialis anterior)	size of individual fibers of denervated muscles ([3]; versus fibers that received control siRNA)	level of PGC-1α [4]
5′ CACCGGAACCUGAACCACUGCAUUU 3′ (SEQ ID NO:3) [HDAC4 siRNA]	elevation	elevation	dramatically reduced	dramatically reduced	significantly alleviates	modestly affected	significantly inhibited	largely prevented	more than 80%	much larger	
Trichostatin A											increase
